Measured values: paper PMC9668100, “Isovitexin Protects Mice from Methicillin-Resistant Staphylococcus aureus-Induced Pneumonia by Targeting Sortase A” (Journal of Microbiology and Biotechnology, 2022)

Target: Sortase A (SrtA) (Staphylococcus aureus, UniProt Q2FV99)
Test: intrinsic fluorescence quenching with purified recombinant SrtA (KA); also FRET inhibition of purified SrtA, IC50 =[…], reversible
Assay type: binding

Sequence of Sortase A (SrtA) (Q2FV99 whole entry): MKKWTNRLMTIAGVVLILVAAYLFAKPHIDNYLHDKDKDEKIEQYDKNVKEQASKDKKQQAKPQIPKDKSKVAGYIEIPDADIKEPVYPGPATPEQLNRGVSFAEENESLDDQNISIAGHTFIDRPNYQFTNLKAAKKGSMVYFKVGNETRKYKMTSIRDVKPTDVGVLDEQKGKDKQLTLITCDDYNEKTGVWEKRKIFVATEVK

Q: Which Kd does the source give for O=c1cc(-c2ccc(O)cc2)oc2cc(O)c([C@@H]3O[C@H](CO)[C@@H](O)[C@H](O)[C@H]3O)c(O)c12 [isovitexin] here?
A: 14 µM
